The record followed here is ChEMBL document CHEMBL4351013, “Carboxamides vs. methanimines: Crystal structures, binding interactions, photophysical studies, and biological evaluation of (indazole-5-yl)methanimines as monoamine oxidase B and acetylcholinesterase inhibitors” (Eur J Med Chem, 2019).

The species named for one data set is Homo sapiens. In words: Selectivity index, ratio of IC50 for human recombinant MAO-A expressed in baculovirus infected BTI-TN-5B1-4 cells to IC50 for human recombinant MAO-B expressed in baculovirus infected BTI-TN-5B1-4 cells.
Data set [1] has as its target Cholinesterase (Homo sapiens) (UniProt P06276). As to the kind of experiment: Inhibition of BuChE in human serum using S-butyrylthiocholine iodide as substrate at 100 uM preincubated with enzyme for 10 mins followed by substrate addition measured for 15 mins by Ellman's method relative to control. It is filed as cell-free.
For data set [2], the target named is T1, Amine oxidase [flavin-containing] A (Homo sapiens, UniProt P21397).
T1 sequence (P21397 whole entry): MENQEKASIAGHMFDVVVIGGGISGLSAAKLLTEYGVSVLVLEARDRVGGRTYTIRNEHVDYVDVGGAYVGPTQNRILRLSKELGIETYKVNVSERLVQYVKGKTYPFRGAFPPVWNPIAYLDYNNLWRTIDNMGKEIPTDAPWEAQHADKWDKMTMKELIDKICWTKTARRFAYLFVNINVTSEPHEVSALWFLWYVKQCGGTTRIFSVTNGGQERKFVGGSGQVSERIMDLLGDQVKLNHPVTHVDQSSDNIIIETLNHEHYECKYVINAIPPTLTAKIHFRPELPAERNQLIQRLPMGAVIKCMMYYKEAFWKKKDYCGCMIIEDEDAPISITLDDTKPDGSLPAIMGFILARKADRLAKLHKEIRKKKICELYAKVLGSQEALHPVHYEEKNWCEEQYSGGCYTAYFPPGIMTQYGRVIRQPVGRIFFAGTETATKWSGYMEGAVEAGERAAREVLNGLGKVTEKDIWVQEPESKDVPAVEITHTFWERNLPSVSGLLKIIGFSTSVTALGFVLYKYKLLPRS
In words: biochemical.
Description: Inhibition of human recombinant MAO-A expressed in baculovirus infected BTI-TN-5B1-4 insect cells assessed as decrease in H2O2 production using p-tyramine as substrate incubated for 20 mins by horse-radish peroxidase/amplex red-based fluorescence method

The target in data set [3] is T2, Amine oxidase [flavin-containing] B (Homo sapiens, UniProt P27338).
T2 sequence (P27338 whole entry): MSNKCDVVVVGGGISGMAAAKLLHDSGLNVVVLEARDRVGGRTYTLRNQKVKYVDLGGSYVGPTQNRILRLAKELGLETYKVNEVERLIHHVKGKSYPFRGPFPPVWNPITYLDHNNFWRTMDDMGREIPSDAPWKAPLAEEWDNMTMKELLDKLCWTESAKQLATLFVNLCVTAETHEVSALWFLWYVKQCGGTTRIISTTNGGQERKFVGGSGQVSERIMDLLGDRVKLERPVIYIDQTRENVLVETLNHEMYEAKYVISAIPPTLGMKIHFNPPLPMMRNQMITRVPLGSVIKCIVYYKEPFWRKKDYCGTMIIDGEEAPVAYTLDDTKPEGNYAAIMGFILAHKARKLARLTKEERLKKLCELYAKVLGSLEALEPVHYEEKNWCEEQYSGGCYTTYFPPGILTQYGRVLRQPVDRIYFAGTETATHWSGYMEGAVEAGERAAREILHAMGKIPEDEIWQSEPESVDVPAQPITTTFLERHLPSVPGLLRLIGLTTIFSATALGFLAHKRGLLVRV
As to the kind of experiment: biochemical. It is filed as cell-based, BTI-TN-5B1-4.
Description: Inhibition of human recombinant MAO-B expressed in baculovirus infected BTI-TN-5B1-4 insect cells assessed as decrease in H2O2 production using p-tyramine as substrate incubated for 20 mins by horse-radish peroxidase/amplex red-based fluorescence method

Data set [4] addresses T2, Amine oxidase [flavin-containing] B. In words: Competitive inhibition of human recombinant MAO-B expressed in baculovirus infected BTI-TN-5B1-4 insect cells using p-tyramine as substrate by Dixon- plot analysis.
The target is the same in data set [5]. In words: Competitive inhibition of human recombinant MAO-B expressed in baculovirus infected BTI-TN-5B1-4 insect cells using p-tyramine as substrate by Lineweaver-Burk plot analysis.
For another data set, the target named is Acetylcholinesterase (Homo sapiens, UniProt P22303). In words: Inhibition of AChE in human erythrocytes using acetylthiocholine iodide as substrate preincubated with enzyme for 10 mins followed by substrate addition measured for 15 mins by Ellman's method. Format: cell-based.
Acetylcholinesterase, sequence (P22303 whole entry): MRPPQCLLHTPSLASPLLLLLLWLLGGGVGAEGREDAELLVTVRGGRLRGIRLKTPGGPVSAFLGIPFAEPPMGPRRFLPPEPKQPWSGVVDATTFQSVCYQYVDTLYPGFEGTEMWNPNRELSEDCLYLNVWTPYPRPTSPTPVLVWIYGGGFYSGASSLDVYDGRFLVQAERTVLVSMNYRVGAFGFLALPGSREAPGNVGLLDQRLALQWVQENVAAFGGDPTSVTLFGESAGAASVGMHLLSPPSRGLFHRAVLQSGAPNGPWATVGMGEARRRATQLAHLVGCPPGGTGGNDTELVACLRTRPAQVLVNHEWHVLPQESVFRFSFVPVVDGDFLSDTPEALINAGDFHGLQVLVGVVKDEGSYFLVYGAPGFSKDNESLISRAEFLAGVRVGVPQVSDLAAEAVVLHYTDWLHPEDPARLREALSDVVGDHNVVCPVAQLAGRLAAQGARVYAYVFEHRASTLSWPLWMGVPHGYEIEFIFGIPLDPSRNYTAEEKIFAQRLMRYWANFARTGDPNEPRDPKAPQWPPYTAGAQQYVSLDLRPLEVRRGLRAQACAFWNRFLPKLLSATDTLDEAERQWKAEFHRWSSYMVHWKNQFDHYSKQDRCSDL
For data set [6], the target named is T2, Amine oxidase [flavin-containing] B. As to the kind of experiment: Potency index, ratio of selegiline IC50 to compound IC50 for human recombinant MAO-B expressed in baculovirus infected BTI-TN-5B1-4 insect cells using p-tyramine as substrate.
Data set [7] can be described thus: Stability of the compound in MeOH assessed as compound purity level at 50 uM measured under daylight exposure for 76 days by LC/ESI-MS analysis. Format: physicochemical. As to conditions: methanol; read-out: Stability; call rule not given here.
Data set [8] can be described thus: Stability of the compound in MeOH at 50 uM measured under daylight exposure for 3 days by UV-visible spectra analysis. Format: physicochemical. The note with it: 72 h.
The nature of data set [9]: Stability of the compound in DMSO at 50 uM measured under daylight exposure for 76 days by UV-visible spectra analysis. Format: physicochemical. As to conditions: 1824 h.
Data set [10] can be described thus: Stability of the compound in ACN at 50 uM measured under daylight exposure for 76 days by UV-visible spectra analysis. It is filed as physicochemical. The note with it: 1824 h.
Data set [11] can be described thus: Stability of the compound in dry MeOH at 1 to 10 mM measured under daylight exposure for 24 to 96 hrs by LC/ESI-MS analysis. Format: physicochemical. As to conditions: 10000 µM.
The nature of data set [12]: Stability of the compound in dry MeOH assessed as dimers at 1 mM measured under daylight exposure for >96 hrs by LC/ESI-MS analysis. Format: physicochemical. As to conditions: 1000 µM.
Data set [13] can be described thus: Stability of the compound in dry MeOH at 1 mM measured under daylight for 62 days by LC/ESI-MS analysis. It is filed as physicochemical. The note with it: 1488 h, 1000 µM.
The nature of data set [14]: Stability of the compound in dry MeOH assessed as compound crystallization at 10 mM measured under daylight for 43 hrs by LC/ESI-MS analysis. It is filed as physicochemical. As to conditions: 10000 µM.
A short description of data set [15]: Cytotoxicity against human HepG2 cells assessed as cell viability at 50 uM measured after 72 hrs by MTT assay relative to control. The note with it: read-out: Activity. It is filed as cell-based.
Another data set relates to HepG2. As to the kind of experiment: Cytotoxicity against human HepG2 cells assessed as mitochondrial dysfunction at 25 to 50 uM. Format: cell-based. As to conditions: hepg2, 50 µM.

Cholinesterase (Homo sapiens), sequence (P06276 whole entry): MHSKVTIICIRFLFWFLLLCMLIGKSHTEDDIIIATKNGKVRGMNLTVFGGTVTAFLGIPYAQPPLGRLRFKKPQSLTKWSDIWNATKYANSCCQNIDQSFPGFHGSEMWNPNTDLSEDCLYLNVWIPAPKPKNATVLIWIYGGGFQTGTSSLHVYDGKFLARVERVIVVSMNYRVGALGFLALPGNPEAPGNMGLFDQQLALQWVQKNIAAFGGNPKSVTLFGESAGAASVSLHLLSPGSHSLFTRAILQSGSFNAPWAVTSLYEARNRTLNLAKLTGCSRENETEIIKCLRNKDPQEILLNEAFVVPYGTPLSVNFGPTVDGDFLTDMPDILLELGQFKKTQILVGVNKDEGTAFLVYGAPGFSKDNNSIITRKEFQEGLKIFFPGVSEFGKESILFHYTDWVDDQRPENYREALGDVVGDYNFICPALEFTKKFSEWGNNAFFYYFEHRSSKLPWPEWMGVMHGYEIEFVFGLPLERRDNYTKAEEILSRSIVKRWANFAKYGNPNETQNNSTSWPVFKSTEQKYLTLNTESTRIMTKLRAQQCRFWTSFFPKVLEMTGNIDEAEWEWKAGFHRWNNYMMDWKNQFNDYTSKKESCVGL

Consider `COCCn1ncc2cc(C(=O)Nc3ccc(Cl)c(Cl)c3)ccc21`, for which the Ratio IC50 in the data set listed under Homo sapiens was more than 2660. Also, the inhibition in data set [1] came out at 9.58%. Affinity in [2] was put at a Ki of 0.48 nM.
For `Cn1ncc2cc(/C=N/c3ccc(Cl)c(Cl)c3)ccc21`, the Ki in data set [3] was 0.46 nM; in data set [4], 0.63 nM. Moreover, in the data set listed under Homo sapiens, the Ratio IC50 was determined as 9710. Moreover, in [1], the inhibition is 8.57%. The “inhibition (INH)” value in [5] is on record as “Active”. For the same molecule, the IC50 in data set [2] was more than 10000 nM.
`Fc1ccc(/N=C/c2ccc3[nH]ncc3c2)cc1Cl`: the Ki in data set [3] was 0.93 nM. Also, in the data set filed under Homo sapiens, the Ratio IC50 was 4760. For the same molecule, in [1], the inhibition was determined as 4.56%. The molecule also came in with a half-maximal inhibitory concentration (IC50) in data set [2] of more than 10000 nM.
`O=C(Nc1ccc(Cl)c(F)c1)c1ccc2[nH]ncc2c1`: the affinity in data set [3] corresponds to a Ki of 0.29 nM. For the same molecule, the Ratio IC50 in the data set listed under Homo sapiens stood at 15000. In data set [1], this molecule showed an inhibition of 2.23%.
`Cn1ncc2cc(C(=O)Nc3ccc(Cl)c(Cl)c3)ccc21` gave an inhibition in data set [1] of 11.1%. In addition, the IC50 against Acetylcholinesterase was found to be 78300 nM.
In [3], `COCCn1ncc2cc(/C=N/c3ccc(Cl)c(Cl)c3)ccc21` showed a half-inhibitory concentration (IC50) of 1.29 nM and a Ki of 0.57 nM. Further, the Ratio IC50 in the data set filed under Homo sapiens was found to be 3160. In [1], this molecule yielded an inhibition of 2.27%. The IC50 in [2] is more than 10000 nM.
Take `O=C(Nc1ccc(F)c(Cl)c1)c1ccc2[nH]ncc2c1`: the inhibition in data set [1] amounted to 7.21%.
`Fc1cc(/N=C/c2ccc3[nH]ncc3c2)ccc1Cl` came in with an inhibitory constant (Ki) in data set [3] of 0.84 nM. In addition, the Ratio IC50 in the data set filed under Homo sapiens turned out to be 5240. The molecule also gave an inhibition in data set [1] of 6.97%.
For `Clc1cc(/N=C/c2ccc3[nH]ncc3c2)cnc1Cl`, the IC50 is 1.28 nM in [3] and more than 10000 nM in [2]. The molecule also yielded an inhibition constant (Ki) in [3] of 0.57 nM. For the same molecule, the Ratio IC50 was more than 7810 in the data set filed under Homo sapiens and 4.3 in data set [6]. In addition, the inhibition in [1] is 9.64%. Further, the remaining at 1824 h, 50 µM in [7] was 68.1%. The Stability entry is “Stable” in data set [8]; “Stable” in data set [9]; “Stable” in [10]; “Stable” in data set [11]; “Unstable” in data set [12]; “Unstable” in data set [13]. Also, the Stability result in data set [14] was “Unstable”.
In the case of `O=C(Nc1cnc(Cl)c(Cl)c1)c1ccc2[nH]ncc2c1`, in data set [3], the affinity corresponds to a Ki of 2.39 nM. Besides, in the data set filed under Homo sapiens, the Ratio IC50 was more than 1840. Moreover, the inhibition in [1] came out at 9.23%. Moreover, the half-inhibitory concentration (IC50) in data set [2] is more than 10000 nM.
Turning to `Clc1ccc(/N=C/c2ccc3[nH]ncc3c2)cc1Cl`, the inhibition in data set [1] came out at 9.01%. Moreover, the viability at 72 h, 50 µM in data set [15] is 80.6%. Further, the Stability result in data set [9] and in [10] was “Stable” each time. The Activity entry in the data set on HepG2 is “Non-Toxic”. Moreover, the IC50 in data set [2] was more than 10000 nM.
For the molecule `O=C(Nc1ccc(Cl)c(Cl)c1)c1ccc2[nH]ncc2c1`, the figures for the Ratio IC50 (in the data set listed under Homo sapiens; in data set [6]) were 17100 and 9, respectively. This molecule gave an inhibition in data set [1] of 11.3%. The viability at 72 h, 50 µM in data set [15] was determined as 66.3%. Moreover, the Activity entry in the data set on HepG2 is “Non-Toxic”.
